Laboratory results from US10179797B2, “Phosphinic peptide derivatives for use as MMP-12 inhibitors” (DSM IP ASSETS B.V., priority 2015, dated 2019).

Columns and labels:
MMP-12 [1] = biological target: T1, MMP-12 (Homo sapiens, UniProt P39900); assay: MMP-12 Fluorometric Drug Discovery Kit inhibition assay; type: biochemical; parameters: purchased Enzo Life Sciences Inc., Farmingdale, N.Y., USA; conditions: read-out: % Inhibition after 20 min
Excerpt: The MMP-12 inhibitor activity was quantified by fluorometric analysis using the MMP-12 Fluorometric Drug Discovery Kit (Enzo Life Sciences Inc., Farmingdale, N.Y., USA) according to the manufacturers' instructions.
Target sequence in this assay (P39900 106-263 limits assumed): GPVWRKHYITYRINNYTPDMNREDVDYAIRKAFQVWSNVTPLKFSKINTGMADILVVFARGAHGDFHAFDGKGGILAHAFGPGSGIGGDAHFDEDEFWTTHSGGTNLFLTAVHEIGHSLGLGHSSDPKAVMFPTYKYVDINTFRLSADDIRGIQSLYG

Human skin = assay: Total dermal elastin after UV-irradiation of cultured human skin samples; conditions: concentration 100 [μm]; for Increase vs. untreated-UV: day 6, (Dermal elastin sample − Dermal Elastin UV)/Dermal Elastin UV * 100%; for Dermal elastin: topical twice a day, daily 45 J/cm^2 UVA, day 6, papillary dermis, non-UV treated sample = 100%
Protocol: Human skin from abdominal plastic surgery classified as “Intermediate” (ITA° angle=53°) has been used. The skin samples were cut in pieces of approx. 8×3 mm (ø×thickness) and cultured up to day 6 in an air-liquid interface in a perforated ring of stainless steel in contact with a culture medium (modified Williams'E medium), the culture medium was renewed every three days. Eight skin specimens were used for each treatment. Each test sample (4 μl) was topically applied twice a day, immediately after UV irradiation and renewed 4 hours later top of each piece after gentle cleaning of the surface with a cotton pad followed by covering with a 6 ømm delivery membrane, which procedure was repeated daily. The samples were irradiated daily with 800% of the Biological Effective Dose of daylight (BED; Del Bino et al, Pigment Cell research, 19, 2006) equal to a dose of 45 J/cm^2 UVA using an adopted BIO-SUN system (Vilber Lourmat). At day 6 twelve skin sections were immunostained with mouse monoclonal anti-Elastin antibody (Sigma cat#E4013). The papillary dermis is selected for the analysis. The evaluation has been performed by estimating both color intensity and distribution with IMAGE J (NIH) analysis software Two slides of each skin sample have been processed by image acquisition and related analysis (i.e. 12 images for each treatment). The score of the dermal Elastin of the non-UV treated sample was set to 100%.

MMP-12 [2] = biological target: T1, MMP-12; assay: Inhibition of MMP-12 degradation of elastin fibers produced by human dermal fibroblasts; type: cell-based; conditions: MMP-12 200 U/ml, 2 hrs at 37° C.
Protocol: Human dermal fibroblasts were pre-cultured in DMEM, 10% FCS, 1% P/S for 48 hrs before starving them in DMEM, 0.2% FCS, 1% P/S for 24 hrs. To induce elastin fiber production TGFb1 (10 ng/ml) was added and incubated for 5 days. After incubation with TGFb1, medium was carefully discarded and cells were washed with assay buffer (HBSS, […] HEPES). In the meantime MMP-12 (200 U/ml) and compounds were mixed in assay buffer and allowed to interact for 30 min. This mixture was then added to the cells and incubated for 2 hrs at 37° C.
Cells were then fixed with ice-cold methanol for 5 min and rehydrated by PBS. Unspecific sites were blocked with 1% BSA in PBS for 1 h at room temperature. Elastin fibers were detected using a primary antibody against elastin and the first antibody was detected with AlexaFluor 488 conjugated secondary antibody. Finally, nuclei were counterstained with DAPI. Stained cells were analyzed with the Thermo Scientific ArrayScan XTI Live High Content Platform. 49 pictures per well were acquired with a 20× objective and as readout we used the area covered by the elastin fibers. % of inhibition of elastin fiber degradation was calculated the following way: % protection of elastin fiber network degradation=100−[(max area−min area)/(max area inhibitor area)*100] in which max area=area covered by elastin fibers of untreated control cells min area=area covered by elastin fibers of MMP12 treated cells inhibitor area=area covered by elastin fibers of MMP12 and inhibitor treated cells.
Target sequence in this assay (P39900 106-470, species assumed): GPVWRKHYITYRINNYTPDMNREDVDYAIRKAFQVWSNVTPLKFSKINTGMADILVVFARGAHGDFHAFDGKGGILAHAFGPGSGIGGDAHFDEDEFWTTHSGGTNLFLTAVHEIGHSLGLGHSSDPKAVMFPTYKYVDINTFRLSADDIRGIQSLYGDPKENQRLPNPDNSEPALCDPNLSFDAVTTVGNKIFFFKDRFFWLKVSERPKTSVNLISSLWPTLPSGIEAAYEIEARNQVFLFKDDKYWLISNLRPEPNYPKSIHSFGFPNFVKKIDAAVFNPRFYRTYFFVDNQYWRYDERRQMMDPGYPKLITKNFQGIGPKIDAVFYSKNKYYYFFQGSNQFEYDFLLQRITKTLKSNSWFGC

Compound	inhibition at 0.5 µM (MMP-12 [1]) [%]	inhibition at 1 µM (MMP-12 [1]) [%]	inhibition at 10 µM (MMP-12 [1]) [%]	also measured
COC(=O)[C@H](Cc1csc2ccccc12)NC(=O)[C@H](Cc1ccc(-c2ccccc2)cc1)CP(=O)(O)CCc1ccccc1 [(I)-A]	75	82	92	
CCC(C)[C@H](NC(=O)[C@H](Cc1ccc(-c2ccccc2)cc1)CP(=O)(O)CCc1ccccc1)C(=O)O (stereo partly drawn) [(I)-B]	94	94	92	
O=C(N[C@@H](Cc1c[nH]c2ccccc12)C(=O)O)[C@H](Cc1ccc(-c2ccccc2)cc1)CP(=O)(O)CCc1ccccc1 [(I)-C]	93	94	92	
COC(=O)[C@H](CCNC(=O)OC(C)(C)C)NC(=O)[C@@H](Cc1ccc(-c2ccccc2)cc1)CP(=O)(O)CCc1ccccc1 [(I)-D]	85	90	91	
CC(C)C[C@H](NC(=O)[C@H](Cc1ccc(-c2ccccc2)cc1)CP(=O)(O)CCc1ccccc1)C(=O)OC(C)(C)C [(I)-F]	73	82	91	
O=C(N[C@@H](Cc1ccc2ccccc2c1)C(=O)O)[C@@H](Cc1ccc(-c2ccccc2)cc1)CP(=O)(O)CCc1ccccc1 [(I)-G]	78	85	91	
CCCC[C@H](NC(=O)[C@H](Cc1ccc(-c2ccccc2)cc1)CP(=O)(O)CCc1ccccc1)C(=O)OC [(I)-H]	83	89	91	
NC(=O)C[C@H](NC(=O)[C@@H](Cc1ccc(-c2ccccc2)cc1)CP(=O)(O)CCc1ccccc1)C(=O)O [(I)-I]	84	89	90	
C[C@H](NC(=O)[C@H](Cc1ccc(-c2ccccc2)cc1)CP(=O)(O)CCc1ccccc1)C(=O)O [(I)-J]	93	94	90	
O=C(N[C@@H](Cc1c[nH]c2ccccc12)C(=O)O)[C@@H](Cc1ccc(-c2ccccc2)cc1)CP(=O)(O)CCc1ccccc1 [(I)-K]	69	79	90	
O=C(O)CCCNC(=O)C(Cc1ccc(-c2ccccc2)cc1)CP(=O)(O)CCc1ccccc1 (stereo not drawn) [(I)-L]	75	82	90	
O=C(N[C@@H](Cc1csc2ccccc12)C(=O)O)[C@@H](Cc1ccc(-c2ccccc2)cc1)CP(=O)(O)CCc1ccccc1 [(I)-M]	52	64	89	
CCCC[C@H](NC(=O)[C@@H](Cc1ccc(-c2ccccc2)cc1)CP(=O)(O)CCc1ccccc1)C(=O)O [(I)-N]			89	
NC(=O)C[C@H](NC(=O)[C@H](Cc1ccc(-c2ccccc2)cc1)CP(=O)(O)CCc1ccccc1)C(=O)O [(I)-O]			88	
CC[C@H](NC(=O)[C@H](Cc1ccc(-c2ccccc2)cc1)CP(=O)(O)CCc1ccccc1)C(=O)OC(C)(C)C [(I)-P]			88	
O=C(N[C@@H](Cc1ccc2ccccc2c1)C(=O)OCc1ccccc1)[C@H](Cc1ccc(-c2ccccc2)cc1)CP(=O)(O)CCc1ccccc1 [(I)-Q]			83	
CC(C)(C)OC(=O)[C@H](Cc1cn(C(=O)OC(C)(C)C)c2ccccc12)NC(=O)C(Cc1ccc(-c2ccccc2)cc1)CP(=O)(O)CCc1ccccc1 (stereo partly drawn) [(I)-R]			82	
COC(=O)[C@@H](NC(=O)[C@H](Cc1ccc(-c2ccccc2)cc1)CP(=O)(O)CCc1ccccc1)C1CCCCC1 [(I)-S, ((S)-2-([1,1′-biphenyl]-4-ylmethyl)-3-(((S)-1-cyclohexyl-2-methoxy-2-oxoethyl)amino)-3-oxopropyl)(phenethyl)phosphinic acid]			82	
CC[C@@H](C)[C@H](NC(=O)[C@@H](Cc1ccc(-c2ccccc2)cc1)CP(=O)(O)CCc1ccccc1)C(=O)OC(C)(C)C [(I)-T, ((R)-2-([1,1′-biphenyl]-4-ylmethyl)-3-(((2S,3R)-1-(tert-butoxy)-3-methyl-1-oxopentan-2-yl)amino)-3-oxopropyl)(phenethyl)phosphinic acid]			75	
CC[C@@H](C)[C@H](NC(=O)[C@H](Cc1ccc(-c2ccccc2)cc1)CP(=O)(O)CCc1ccccc1)C(=O)OC(C)(C)C [(I)-U, ((S)-2-([1,1′-biphenyl]-4-ylmethyl)-3-(((2S,3R)-1-(tert-butoxy)-3-methyl-1-oxopentan-2-yl)amino)-3-oxopropyl)(phenethyl)phosphinic acid]			72	
COC(=O)C(C)(C)NC(=O)C(Cc1ccc(-c2ccccc2)cc1)CP(=O)(O)CCc1ccccc1 (stereo not drawn) [(I)-V, (2-([1,1′-biphenyl]-4-ylmethyl)-3-((1-methoxy-2-methyl-1-oxopropan-2-yl)amino)-3-oxopropyl)(phenethyl)phosphinic acid]			61	
O=C(NC(Cc1c[nH]c2ccccc12)C(=O)O)C(Cc1ccc(-c2ccccc2)cc1)CP(=O)(O)CCc1ccccc1.O=C(O)C(F)(F)F (stereo not drawn) [(I)-c, (3-([1,1′-biphenyl]-4-yl)-2-((hydroxy(phenethyl)phosphoryl)methyl)propanoyl)tryptophan compound with 2,2,2-trifluoroacetic acid (1:1)]				Increase vs. untreated-UV (Human skin): +52%; Dermal elastin (Human skin): 123%
CCC(C)C(NC(=O)C(Cc1ccc(-c2ccccc2)cc1)CP(=O)(O)CCc1ccccc1)C(=O)O (stereo not drawn) [(I)-e, 2-(3-([1,1′-biphenyl]-4-yl)-2-((hydroxy(phenethyl)phosphoryl)methyl)propanamido)-3-methylpentanoic acid]				% protection of elastin fiber network degradation (MMP-12 [2]; 0.05 μM): 12.44%; % protection of elastin fiber network degradation (MMP-12 [2]; 1 μM): 68.17%; % protection of elastin fiber network degradation (MMP-12 [2]; 20 μM): 83.73%
CCCCC(NC(=O)C(Cc1ccc(-c2ccccc2)cc1)CP(=O)(O)CCc1ccccc1)C(=O)O (stereo not drawn) [(I)-k, 2-(3-([1,1′-biphenyl]-4-yl)-2-((hydroxy(phenethyl)phosphoryl)methyl)propanamido)hexanoic acid]				Increase vs. untreated-UV (Human skin): +54%; Dermal elastin (Human skin): 125%
CC(NC(=O)C(Cc1ccc(-c2ccccc2)cc1)CP(=O)(O)CCc1ccccc1)C(=O)O (stereo not drawn) [(I)-m, (3-([1,1′-biphenyl]-4-yl)-2-((hydroxy(phenethyl)phosphoryl)methyl)propanoyl)alanine]				Increase vs. untreated-UV (Human skin): +30%; Dermal elastin (Human skin): 106%
